Literature values, collected in PMC11170759, “Advancing Parkinson’s Disease Diagnostics: The Potential of Arylpyrazolethiazole Derivatives for Imaging α-Synuclein Aggregates” (ACS Omega, 2024).

System: α-synuclein aggregates
Parameters: method as in PMID 34577548
Details: literature ligand of Figure 1; cited from earlier work

SMILES: c1ccc(-c2ccc(C3CC(c4ccc5c(c4)OCO5)=NN3)o2)cc1 (stereo not shown) [8b]
- reduction of ThT fluorescence: 94%
